Among the targets are FRK (Homo sapiens, UniProt P42685); LYN (Homo sapiens, UniProt P07948); BRSK1 (Homo sapiens, UniProt Q8TDC3); CIT (Homo sapiens, UniProt O14578); PIP5K1A (Homo sapiens, UniProt Q99755); BTK (Homo sapiens, UniProt Q06187); TTK (Homo sapiens, UniProt P33981); KIT-autoinhibited (Homo sapiens, UniProt P10721); MAP3K4 (Homo sapiens, UniProt Q9Y6R4); KIT(A829P) (Homo sapiens, UniProt P10721, A829P); RIPK2 (Homo sapiens, UniProt O43353); NEK5 (Homo sapiens, UniProt Q6P3R8); GSK3A (Homo sapiens, UniProt P49840); HIPK3 (Homo sapiens, UniProt Q9H422); ACVRL1 (Homo sapiens, UniProt P37023); TNIK (Homo sapiens, UniProt Q9UKE5).

Common to all, as to test: biochemical
What all share (parameters): KINOMEscan active-site-directed competition binding panel, 468 kinases, percent of DMSO control at 1 uM
What all share (conditions): KINOMEscan binding, percent of DMSO control; read-out: Ctrl%

For another experiment, the target named is T1, DCAMKL3 (Homo sapiens, UniProt Q9C098).
T1 construct: gene DCLK3

Another experiment concerns the target T2, ASK1 (Homo sapiens, UniProt Q99683).
T2 construct: gene MAP3K5

The target of experiment [1] is EGFR(L747-E749del, A750P) (Homo sapiens, UniProt P00533, A750P/DEL747-749).
For another experiment, the target named is T3, S6K1 (Homo sapiens, UniProt P23443).
T3 construct: gene RPS6KB1

Experiment [2] deals with T4, ABL1(F317L)-nonphosphorylated (Homo sapiens, UniProt P00519, F317L).
T4 construct: nonphosphorylated

The next experiment has as its target T5, PYK2 (Homo sapiens, UniProt Q14289).
T5 construct: gene PTK2B

A further experiment addresses T6, PKAC-alpha (Homo sapiens, UniProt P17612).
T6 construct: gene PRKACA

The next experiment has as its target T7, CAMK1B (Homo sapiens, UniProt Q6P2M8).
T7 construct: gene PNCK

Molecules are shown by their SMILES.

PIP5K1A, sequence (Q99755 whole entry): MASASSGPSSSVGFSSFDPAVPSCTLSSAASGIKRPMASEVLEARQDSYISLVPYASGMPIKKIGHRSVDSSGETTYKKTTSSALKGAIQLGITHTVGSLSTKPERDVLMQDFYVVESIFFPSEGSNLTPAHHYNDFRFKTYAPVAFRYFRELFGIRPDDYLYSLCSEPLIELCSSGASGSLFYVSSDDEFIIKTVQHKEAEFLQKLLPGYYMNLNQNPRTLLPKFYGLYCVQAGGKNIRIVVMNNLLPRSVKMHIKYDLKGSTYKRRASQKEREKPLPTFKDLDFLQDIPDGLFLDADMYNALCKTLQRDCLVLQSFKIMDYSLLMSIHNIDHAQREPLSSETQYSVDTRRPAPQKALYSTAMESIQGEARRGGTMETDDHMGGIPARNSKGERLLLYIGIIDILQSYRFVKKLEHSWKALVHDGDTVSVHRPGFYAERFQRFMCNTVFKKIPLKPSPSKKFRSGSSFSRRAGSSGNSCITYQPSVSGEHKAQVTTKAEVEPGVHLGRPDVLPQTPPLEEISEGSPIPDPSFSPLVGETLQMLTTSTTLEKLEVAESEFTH
HIPK3, sequence (Q9H422 whole entry): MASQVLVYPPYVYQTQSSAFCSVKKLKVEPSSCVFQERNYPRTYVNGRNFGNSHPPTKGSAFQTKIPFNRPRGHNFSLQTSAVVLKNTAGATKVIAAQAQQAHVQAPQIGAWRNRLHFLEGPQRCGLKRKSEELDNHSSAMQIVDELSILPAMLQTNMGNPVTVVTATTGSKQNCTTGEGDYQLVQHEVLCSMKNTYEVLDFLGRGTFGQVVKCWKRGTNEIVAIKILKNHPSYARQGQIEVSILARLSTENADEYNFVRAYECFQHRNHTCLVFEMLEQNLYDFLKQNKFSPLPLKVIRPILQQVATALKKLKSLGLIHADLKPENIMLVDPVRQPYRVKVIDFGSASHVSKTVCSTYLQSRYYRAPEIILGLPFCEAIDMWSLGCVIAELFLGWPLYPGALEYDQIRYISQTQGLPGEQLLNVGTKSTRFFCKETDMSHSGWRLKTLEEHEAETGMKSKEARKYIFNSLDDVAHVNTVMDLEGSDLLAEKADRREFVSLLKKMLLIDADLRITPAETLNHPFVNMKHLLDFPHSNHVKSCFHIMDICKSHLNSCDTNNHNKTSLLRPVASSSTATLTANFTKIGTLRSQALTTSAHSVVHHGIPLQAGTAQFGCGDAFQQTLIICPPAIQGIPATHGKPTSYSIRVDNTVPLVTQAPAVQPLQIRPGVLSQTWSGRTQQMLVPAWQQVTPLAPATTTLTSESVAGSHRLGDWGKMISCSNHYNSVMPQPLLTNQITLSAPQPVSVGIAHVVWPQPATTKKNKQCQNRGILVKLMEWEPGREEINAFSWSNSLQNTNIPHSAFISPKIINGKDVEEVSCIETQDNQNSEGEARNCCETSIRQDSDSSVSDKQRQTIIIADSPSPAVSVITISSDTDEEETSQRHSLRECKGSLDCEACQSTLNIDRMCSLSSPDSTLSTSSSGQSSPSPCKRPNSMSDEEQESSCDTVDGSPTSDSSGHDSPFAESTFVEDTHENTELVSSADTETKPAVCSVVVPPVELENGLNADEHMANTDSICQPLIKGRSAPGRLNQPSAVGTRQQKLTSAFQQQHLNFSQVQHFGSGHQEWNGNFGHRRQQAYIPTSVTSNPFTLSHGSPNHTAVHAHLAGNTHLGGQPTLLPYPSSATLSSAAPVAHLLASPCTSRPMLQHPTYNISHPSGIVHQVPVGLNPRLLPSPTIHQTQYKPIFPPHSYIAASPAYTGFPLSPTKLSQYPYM
KIT-autoinhibited, sequence (P10721 whole entry): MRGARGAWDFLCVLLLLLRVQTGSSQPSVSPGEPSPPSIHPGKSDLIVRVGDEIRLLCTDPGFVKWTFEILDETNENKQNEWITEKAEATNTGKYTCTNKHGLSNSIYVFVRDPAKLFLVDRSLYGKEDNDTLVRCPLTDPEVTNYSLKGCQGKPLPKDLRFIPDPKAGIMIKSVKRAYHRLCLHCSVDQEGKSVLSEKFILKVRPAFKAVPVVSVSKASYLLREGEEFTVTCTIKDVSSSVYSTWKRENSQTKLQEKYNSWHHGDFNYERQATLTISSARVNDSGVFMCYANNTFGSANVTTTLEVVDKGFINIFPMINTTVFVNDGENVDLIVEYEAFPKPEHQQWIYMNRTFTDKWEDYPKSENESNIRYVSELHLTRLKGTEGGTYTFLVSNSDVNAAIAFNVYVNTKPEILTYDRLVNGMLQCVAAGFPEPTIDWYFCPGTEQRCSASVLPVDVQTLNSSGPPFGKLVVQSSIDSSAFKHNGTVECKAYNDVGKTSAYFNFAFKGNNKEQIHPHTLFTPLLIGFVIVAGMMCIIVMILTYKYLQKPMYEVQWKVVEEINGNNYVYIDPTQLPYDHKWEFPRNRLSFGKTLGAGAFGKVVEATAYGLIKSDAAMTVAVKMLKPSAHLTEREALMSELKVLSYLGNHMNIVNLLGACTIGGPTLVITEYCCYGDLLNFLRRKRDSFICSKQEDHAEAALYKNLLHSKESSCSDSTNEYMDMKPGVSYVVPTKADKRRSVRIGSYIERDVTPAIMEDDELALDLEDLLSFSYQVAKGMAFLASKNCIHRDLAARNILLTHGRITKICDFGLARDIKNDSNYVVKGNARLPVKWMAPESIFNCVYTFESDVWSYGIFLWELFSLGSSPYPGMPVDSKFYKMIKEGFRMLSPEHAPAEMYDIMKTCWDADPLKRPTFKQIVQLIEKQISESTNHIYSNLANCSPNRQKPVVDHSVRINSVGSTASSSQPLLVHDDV
KIT(A829P), sequence (P10721 whole entry A829P): as the sequence (P10721 whole entry) above, with A829P counted along it
ACVRL1, sequence (P37023 whole entry): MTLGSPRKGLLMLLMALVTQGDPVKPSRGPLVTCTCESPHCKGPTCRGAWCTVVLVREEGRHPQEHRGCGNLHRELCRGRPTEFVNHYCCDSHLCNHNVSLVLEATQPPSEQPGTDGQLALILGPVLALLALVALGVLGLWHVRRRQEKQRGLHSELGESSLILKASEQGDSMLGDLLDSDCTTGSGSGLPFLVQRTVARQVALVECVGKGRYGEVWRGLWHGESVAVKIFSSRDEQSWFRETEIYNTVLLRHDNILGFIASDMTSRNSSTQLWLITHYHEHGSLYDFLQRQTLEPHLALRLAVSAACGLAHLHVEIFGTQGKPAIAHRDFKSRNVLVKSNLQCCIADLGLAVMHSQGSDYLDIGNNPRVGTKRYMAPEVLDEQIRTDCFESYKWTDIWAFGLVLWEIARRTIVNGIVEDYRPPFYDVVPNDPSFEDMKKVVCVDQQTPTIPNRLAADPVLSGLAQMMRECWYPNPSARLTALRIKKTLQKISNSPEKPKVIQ
BTK, sequence (Q06187 whole entry): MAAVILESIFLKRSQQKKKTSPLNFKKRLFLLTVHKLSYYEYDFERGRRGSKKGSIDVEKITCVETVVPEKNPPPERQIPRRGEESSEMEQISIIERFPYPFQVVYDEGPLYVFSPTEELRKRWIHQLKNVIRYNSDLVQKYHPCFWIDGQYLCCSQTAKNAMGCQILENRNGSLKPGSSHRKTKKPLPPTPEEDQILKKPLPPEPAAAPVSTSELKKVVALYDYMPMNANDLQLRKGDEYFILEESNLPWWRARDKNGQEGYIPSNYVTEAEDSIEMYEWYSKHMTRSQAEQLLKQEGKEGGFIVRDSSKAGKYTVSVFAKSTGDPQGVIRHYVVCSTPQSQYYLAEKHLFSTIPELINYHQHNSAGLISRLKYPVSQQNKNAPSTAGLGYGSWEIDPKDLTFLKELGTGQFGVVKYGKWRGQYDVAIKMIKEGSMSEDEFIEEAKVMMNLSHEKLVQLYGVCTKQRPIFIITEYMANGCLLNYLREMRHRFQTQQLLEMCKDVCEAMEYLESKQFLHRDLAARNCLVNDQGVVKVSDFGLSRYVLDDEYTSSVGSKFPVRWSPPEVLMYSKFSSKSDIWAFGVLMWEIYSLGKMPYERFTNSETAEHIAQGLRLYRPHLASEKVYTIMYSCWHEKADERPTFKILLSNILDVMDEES
TTK, sequence (P33981 whole entry): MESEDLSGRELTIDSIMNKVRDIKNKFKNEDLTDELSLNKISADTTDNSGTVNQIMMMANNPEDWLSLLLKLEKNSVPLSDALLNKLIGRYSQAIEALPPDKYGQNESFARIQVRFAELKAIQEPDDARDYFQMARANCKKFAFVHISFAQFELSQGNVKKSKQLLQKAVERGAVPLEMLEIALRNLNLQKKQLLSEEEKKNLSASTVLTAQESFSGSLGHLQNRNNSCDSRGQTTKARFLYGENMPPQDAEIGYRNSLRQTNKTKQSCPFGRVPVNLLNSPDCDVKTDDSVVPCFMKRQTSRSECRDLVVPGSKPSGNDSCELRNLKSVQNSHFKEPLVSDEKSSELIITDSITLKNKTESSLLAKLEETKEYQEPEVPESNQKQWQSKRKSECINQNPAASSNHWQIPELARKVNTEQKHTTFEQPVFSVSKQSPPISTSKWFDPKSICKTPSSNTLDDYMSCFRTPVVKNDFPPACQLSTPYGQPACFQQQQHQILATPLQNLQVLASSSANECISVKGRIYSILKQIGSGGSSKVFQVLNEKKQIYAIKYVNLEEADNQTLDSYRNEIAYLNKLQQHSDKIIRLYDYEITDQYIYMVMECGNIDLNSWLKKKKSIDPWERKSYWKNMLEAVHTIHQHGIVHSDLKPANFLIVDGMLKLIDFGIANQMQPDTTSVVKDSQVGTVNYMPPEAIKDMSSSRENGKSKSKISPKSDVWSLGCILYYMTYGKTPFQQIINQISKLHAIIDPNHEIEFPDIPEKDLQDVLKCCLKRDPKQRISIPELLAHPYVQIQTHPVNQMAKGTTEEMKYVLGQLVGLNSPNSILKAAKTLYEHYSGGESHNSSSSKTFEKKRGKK

Take `Cc1ccc(NC(=O)c2cccc(C(F)(F)F)c2)cc1Nc1cc(-c2cccnc2)nc2[nH]ccc12` [HZX-02-059]: the remaining binding at 1 µM on FRK worked out at 4.7%; on LYN it was 17%; at BRSK1 it was 97%; at CIT, 64%; on PIP5K1A it was 79%; at BTK it was 100%. Moreover, the remaining binding at 1 µM stood at 99% at TTK; 88% at KIT-autoinhibited; 100% at MAP3K4; 84% at KIT(A829P); 81% at DCAMKL3; 93% at ASK1. Further, the remaining binding at 1 µM in [1] came to 77%; on RIPK2 it was 100%; on NEK5 it was 100%; at S6K1 it was 95%; on GSK3A, 98%; in [2], 60%. In addition, the remaining binding at 1 µM on PYK2 was determined as 100%; at HIPK3, 94%; on PKAC-alpha it was 94%; at ACVRL1, 75%; at CAMK1B, 98%; at TNIK, 100%.

For the origin of these results see publication PMC8799717, “Pharmacological targeting PIKfyve and tubulin as an effective treatment strategy for double-hit lymphoma” (Cell Death Discovery, 2022).
